Assay results: US20260098054A1, “COMPOSITIONS AND METHODS FOR CONSTRUCTING CONJUGATES” (priority 2022, published 2026)
Non-standard residues stand in square brackets, D forms with d. Pen = CC(C)(S)[C@H](N)C(=O)O

Assays:
U87-MG cells = assay: In vitro cytotoxicity assay (CCK-8) in U87-MG cells; details: U87-MG (high αvβ3 integrin), 48 h incubation, fold of free DM1 activity
Description: (§1) Cells were plated in 96-well microplates at a density of 5×10^4 cells/well for 24 h for attachment, 90 μl of DMEM with 10% FBS and 100 U/mL P/Swas added to each well. PDCs 1-6 were first dissolved in DMSO respectively, at a concentration of 10 mM, followed by serial dilution in culture medium to achieve different concentrations as specified. For U87-MG cells, the concentration of compounds administered ranged from 1.37 to 27000 nM. While for HEK-293T cells, the concentration of compounds administered ranged from 0.03 to 1000 nM. The cells treated with the compounds were then incubated for 48 h. 10 μl of CCK-8 solution was then added to each well and incubated for 30 min. Absorbance was acquired at 450 nm using a spectrophotometer (Synergy HTX, Biotek). Three experiments were performed separately in triplicates and the data was processed using the GraphPad Prism (GraphPad Software, La Jolla, CA).
(§2) Next, the biological activities of these conjugates were evaluated.
Then, the in vitro antitumor efficacy of PDCs 1-6 was examined by CCK-8 assay (FIG. 5B). The IC50 of free DM1 and its conjugates were compared internally within the same cell line, to determine the potency of the six compounds.

HEK-293T cells = assay: In vitro cytotoxicity assay (CCK-8) in HEK-293T cells; details: for cytotoxicity in words (ranking among the six compounds): HEK-293T, CCK-8, PDCs 1-6
Description: as §1, §2
The peptide-drug conjugates were tested on the negative control cell line.

[1] = Stability test of conjugates (checked by LCMS); assay type: physicochemical; details: 5% ACN in H2O or 5% ACN in PBS pH 7.4, 0.5 mM, room temperature or 37° C., LCMS after 24 h and 48 h
Description: FIGS. 5A-5C are line graphs of stability test and biological evaluations of PDC 1-6. […] The compound was checked by LCMS after 24 h and 48 h.

αvβ3 integrin = αvβ3 integrin (Homo sapiens, UniProt P05106+P06756); details: Kapp, et al., Sci. Rep. 2017; cited from earlier work
integrin αvβ3 = integrin αvβ3 (UniProt P06756 31-1048; P05106 27-788); assay: cell-based or functional assay
Chain of integrin αvβ3 (P06756 31-1048, chain 1 of 2): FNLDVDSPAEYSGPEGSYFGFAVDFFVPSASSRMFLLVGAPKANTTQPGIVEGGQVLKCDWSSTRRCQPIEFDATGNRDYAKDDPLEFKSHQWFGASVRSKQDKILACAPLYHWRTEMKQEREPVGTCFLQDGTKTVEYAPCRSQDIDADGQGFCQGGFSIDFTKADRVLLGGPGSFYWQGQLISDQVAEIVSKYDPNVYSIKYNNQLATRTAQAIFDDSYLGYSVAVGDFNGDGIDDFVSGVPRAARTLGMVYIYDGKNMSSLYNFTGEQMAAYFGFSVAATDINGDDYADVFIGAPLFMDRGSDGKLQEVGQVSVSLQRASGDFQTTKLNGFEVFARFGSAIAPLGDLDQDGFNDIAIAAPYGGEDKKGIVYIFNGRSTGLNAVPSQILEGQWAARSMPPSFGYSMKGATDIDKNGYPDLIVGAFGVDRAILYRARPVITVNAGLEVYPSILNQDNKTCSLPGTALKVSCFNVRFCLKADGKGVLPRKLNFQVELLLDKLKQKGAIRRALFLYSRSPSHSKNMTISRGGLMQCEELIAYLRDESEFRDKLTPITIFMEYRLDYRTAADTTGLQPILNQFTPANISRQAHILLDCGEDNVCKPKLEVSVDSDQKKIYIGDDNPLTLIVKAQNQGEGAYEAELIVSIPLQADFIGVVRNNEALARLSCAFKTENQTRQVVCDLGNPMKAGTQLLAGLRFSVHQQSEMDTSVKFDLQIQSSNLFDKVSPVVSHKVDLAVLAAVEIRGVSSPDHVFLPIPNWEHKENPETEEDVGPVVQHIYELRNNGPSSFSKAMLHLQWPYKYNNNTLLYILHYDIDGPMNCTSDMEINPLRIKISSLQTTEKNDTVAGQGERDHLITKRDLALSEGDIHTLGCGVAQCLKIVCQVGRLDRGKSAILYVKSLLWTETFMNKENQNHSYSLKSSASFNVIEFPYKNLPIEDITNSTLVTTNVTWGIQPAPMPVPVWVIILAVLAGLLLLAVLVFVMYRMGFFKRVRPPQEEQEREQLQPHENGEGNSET
Chain of integrin αvβ3 (P05106 27-788, chain 2 of 2): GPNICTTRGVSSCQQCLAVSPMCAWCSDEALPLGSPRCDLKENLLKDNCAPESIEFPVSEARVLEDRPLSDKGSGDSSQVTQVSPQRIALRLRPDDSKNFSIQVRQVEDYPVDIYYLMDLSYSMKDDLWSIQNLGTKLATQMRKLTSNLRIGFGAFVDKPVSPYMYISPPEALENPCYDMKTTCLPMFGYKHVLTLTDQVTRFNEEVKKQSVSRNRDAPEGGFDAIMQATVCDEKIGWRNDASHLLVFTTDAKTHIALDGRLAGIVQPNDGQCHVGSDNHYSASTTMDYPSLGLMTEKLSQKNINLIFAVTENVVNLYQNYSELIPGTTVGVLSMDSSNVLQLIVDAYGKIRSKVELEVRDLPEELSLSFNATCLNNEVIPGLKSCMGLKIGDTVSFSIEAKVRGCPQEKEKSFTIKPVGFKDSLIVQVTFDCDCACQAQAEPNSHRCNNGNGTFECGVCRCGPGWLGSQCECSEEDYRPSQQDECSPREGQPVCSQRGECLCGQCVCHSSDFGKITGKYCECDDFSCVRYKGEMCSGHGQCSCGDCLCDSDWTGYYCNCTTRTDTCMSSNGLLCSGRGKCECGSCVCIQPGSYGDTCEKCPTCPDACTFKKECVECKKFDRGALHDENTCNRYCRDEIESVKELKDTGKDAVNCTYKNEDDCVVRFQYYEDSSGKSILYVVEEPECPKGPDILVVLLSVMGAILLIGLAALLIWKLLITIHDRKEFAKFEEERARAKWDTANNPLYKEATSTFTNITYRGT

Chain of αvβ3 integrin (P06756 31-1048): as the sequence (P06756 31-1048, chain 1 of 2) above
Chain of αvβ3 integrin (P05106 27-788): as the sequence (P05106 27-788, chain 2 of 2) above

COc1cc2cc(c1Cl)N(C)C(=O)C[C@H](OC(=O)[C@H](C)N(C)C(=O)CCSc1c3ccccc3cn1CCCC[C@@H]1NC(=O)[C@@H](Cc3ccccc3)NC(=O)[C@H](CC(=O)O)NC(=O)CNC(=O)[C@H](CCCNC(=N)N)NC1=O)[C@]1(C)O[C@H]1[C@H](C)[C@@H]1C[C@@](O)(NC(=O)O1)[C@H](OC)/C=C/C=C(\C)C2 [PDC-1, OPA-c [RGDfK]-DM1]
cytotoxicity compared to free DM1 (IC50 compared within the same cell line) (U87-MG cells): 0.85 fold

COc1cc2cc(c1Cl)N(C)C(=O)C[C@H](OC(=O)[C@H](C)N(C)C(=O)CCSSCCn1cc3ccccc3c1SC(C)(C)[C@@H]1NC(=O)[C@@H](Cc3ccccc3)NC(=O)[C@H](CC(=O)O)NC(=O)CNC(=O)[C@H](CCCNC(=N)N)NC1=O)[C@]1(C)O[C@H]1[C@H](C)[C@@H]1C[C@@](O)(NC(=O)O1)[C@H](OC)/C=C/C=C(\C)C2 [PDC-3]
cytotoxicity compared to free DM1 (IC50 compared within the same cell line) (U87-MG cells): 5.95 fold | cytotoxicity as fold of the activity of DM1 (HEK-293T cells; HEK-293T (low αvβ3 integrin, negative control), 48 h incubation, CCK-8): 0.31 fold | cytotoxicity in words (ranking among the six compounds) (HEK-293T cells): relatively better activity among the six compounds | stability compared to PDC-1 (FIG. 5A) [1]: improved stability

COc1cc2cc(c1Cl)N(C)C(=O)C[C@H](OC(=O)[C@H](C)N(C)C(=O)CCSc1c3ccccc3cn1CCCC[C@@H]1NC(=O)[C@@H](Cc3ccccc3)NC(=O)[C@H](CCC(=O)O)NC(=O)CNC(=O)[C@H](CCCNC(=N)N)NC1=O)[C@]1(C)O[C@H]1[C@H](C)[C@@H]1C[C@@](O)(NC(=O)O1)[C@H](OC)/C=C/C=C(\C)C2 [PDC-5]
cytotoxicity compared to free DM1 (IC50 compared within the same cell line) (U87-MG cells): 0.49 fold

COc1cc2cc(c1Cl)N(C)C(=O)C[C@H](OC(=O)[C@H](C)N(C)C(=O)CCSSCCn1cc3ccccc3c1SC(C)(C)[C@@H]1NC(=O)[C@@H](Cc3ccccc3)NC(=O)[C@H](CCC(=O)O)NC(=O)CNC(=O)[C@H](CCCNC(=N)N)NC1=O)[C@]1(C)O[C@H]1[C@H](C)[C@@H]1C[C@@](O)(NC(=O)O1)[C@H](OC)/C=C/C=C(\C)C2 [PDC-6]
cytotoxicity compared to free DM1 (IC50 compared within the same cell line) (U87-MG cells): 0.48 fold | cytotoxicity in words (ranking among the six compounds) (HEK-293T cells): relatively better activity among the six compounds

c [c [RGDfK]]
increase of binding affinity compared to the linear RGD tripeptide (αvβ3 integrin): 39 fold

c [c [RGDfV]]
increase of binding affinity compared to the linear RGD tripeptide (αvβ3 integrin): 58 fold

cyclo(RGD[dF]K(Pen)) (not fully specified) [PDC-4]
cytotoxicity (CCK-8 assay) in U87-MG cells, fold against free DM1 (integrin αvβ3): 1.29 fold | cytotoxicity (CCK-8 assay) in the αvβ3-negative cell line HEK-293T, fold of the activity of DM1 (integrin αvβ3): 0.16 fold
